# In patent US6322532A, “Sonophoresis method and apparatus” (3M Innovative Properties Company, priority 1999, dated 2001):
# Assay: Franz diffusion cell permeation of salicylic acid across cadaver skin with/without flexure mode sonophoresis transducer
# Parameters: species or system human
# Description: A similar experiment to that described in Example 1 was carried out using salicylic acid. […] About 20 ml donor solution (ppb) with excess (beyond solubility levels) of salicylic acid was added to the upper portion of the Franz cells atop the cadaver skin.
compound,measurement,setting,value
O=C(O)c1ccccc1O [salicylic acid],average sonophoretic drug flux,"active cells, about 2 W/cm^2, about 27 kHz, about 200 V (rms), continuous duty cycle, about 7 cm^2 cadaver skin, first few hours",about 700 micrograms/cm^2 /hr
same,average passive drug flux,"four passive cells, no sonophoresis transducer, 2 cm^2 cadaver skin, 10 ml receptor fluid, 5 hr experiment",about 200 micrograms/cm^2 /hr
